pIC50: −log10 of the molar value.
What was measured:
[1] = Selectivity index, ratio of IC50 for rat L6 cells to IC50 for promastigote stage of Leishmania infantum MCAN/ES/92/BCN722; format: toxicity, cell-based
[2] = molecular target: Leishmania infantum; experiment: Leishmanicidal activity against promastigote stage of Leishmania infantum MCAN/ES/92/BCN722 after 48 hrs by acid phosphatase based assay; format: functional, organism-based
[3] = system: L6; experiment: Cytotoxicity against rat L6 cells after 6 days by resazurin staining based fluorescence plate reader assay; format: cell-based
[4] = system: Leishmania infantum; experiment: Potency index, ratio of potassium antimony (III) tartarate hydrate IC50 to compound IC50 for promastigote stage of Leishmania infantum MCAN/ES/92/BCN722; format: functional
[5] = system: Trypanosoma brucei; experiment: Potency index, ratio of nifurtimox IC50 to compound IC50 for bloodstream form of Trypanosoma brucei 221; format: functional
[6] = system: Trypanosoma cruzi; experiment: Potency index, ratio of benzanidazole IC50 to compound IC50 for epimastigote stage of Trypanosoma cruzi MHOM/ES/2203/BCN590; format: functional

| Compound | Ratio IC50 [4] | Ratio IC50 [5] | also measured |
| --- | --- | --- | --- |
| POTASSIUM ANTIMONYL TARTRATE TRIHYDRATE |  |  | Ratio IC50 [1]: 0.1; pIC50 [2]: 4.61; pIC50 [3]: 5.49 |
| NCc1ccc(-c2nc3ccc(Cl)cc3c3c2CCCO3)cc1 | <=5 | 2 |  |
| OCCCc1cc2cc(Cl)ccc2nc1-c1ccco1 | <=5 |  |  |
| N#CCCc1cc2cc(Cl)ccc2nc1-c1cccs1 | <=5 |  |  |
| N#Cc1ccc(-c2nc3cc(Cl)ccc3c3c2CCCN3)cc1 | <=5 |  |  |
| N#Cc1ccc(-c2nc3ccc(Cl)cc3c3c2CCCCN3)cc1 | <=5 |  |  |
| NCc1ccc2nc(-c3ccc(Cl)cc3)c3c(c2c1)N(Cc1ccccc1)CCC3 | <=5 | 2 |  |
| NCc1ccc(-c2nc3ccc(Cl)cc3c3c2CCCN3Cc2ccccc2)cc1 | <=5 | 2 | Ratio IC50 [6]: 4 |
| N#Cc1ccc(-c2nc3ccc(Cl)cc3c3c2CCCN3)cc1 | <=5 |  |  |
| Clc1ccc2nc(-c3cccs3)c3c(c2c1)OCCC3 | <=5 |  |  |
| CCN(CC)CCCc1cc2cc(Cl)ccc2nc1-c1cccs1 | <=5 |  |  |
| N#Cc1ccc(-c2nc3cc(Cl)ccc3cc2CCCN)cc1 | <=5 |  |  |
| N#Cc1ccc([C@H]2Nc3ccc(Cl)cc3[C@@H]3OCCC[C@H]23)cc1 | <=5 |  |  |
| N#Cc1ccc(-c2nc3ccc(Cl)cc3c3c2CCN3)cc1 | <=5 |  |  |
| Clc1ccc2nc(-c3cccs3)c(CCCN3CCCC3)cc2c1 | <=5 |  |  |
| NCc1ccc(-c2nc3ccc(Cl)cc3c3c2CCCCN3)cc1 | <=5 | 2 |  |
| Clc1ccc2nc(-c3ccco3)c3c(c2c1)OCCC3 | <=5 |  |  |
| NCc1ccc(-c2nc3ccc(Cl)cc3c3c2CCCN3)cc1 | <=5 | 2 |  |
| N#Cc1ccc(-c2nc3ccc(Cl)cc3c3c2CCCO3)cc1 | <=5 |  |  |
| NCc1ccc(-c2nc3ccc(Cl)cc3c3c2CCN3)cc1 | <=5 | 2 |  |
| NCc1ccc(-c2nc3cc(Cl)ccc3c3c2CCCN3)cc1 | <=5 | 2 |  |
| OCCCc1cc2cc(Cl)ccc2nc1-c1cccs1 | <=5 |  |  |

Reference: ChEMBL document CHEMBL3739321, “Multicomponent reaction-based synthesis and biological evaluation of tricyclic heterofused quinolines with multi-trypanosomatid activity” (Eur J Med Chem, 2015)
